Fold change (FC) and Efficacy data for four compounds are collected here from ChEMBL document CHEMBL4346714, “Multitarget PPARγ agonists as innovative modulators of the metabolic syndrome” (Eur J Med Chem, 2019).

In assay [1] the target is T1, Hexokinase-4 (Homo sapiens) (UniProt P35557).
T1 sequence (whole entry): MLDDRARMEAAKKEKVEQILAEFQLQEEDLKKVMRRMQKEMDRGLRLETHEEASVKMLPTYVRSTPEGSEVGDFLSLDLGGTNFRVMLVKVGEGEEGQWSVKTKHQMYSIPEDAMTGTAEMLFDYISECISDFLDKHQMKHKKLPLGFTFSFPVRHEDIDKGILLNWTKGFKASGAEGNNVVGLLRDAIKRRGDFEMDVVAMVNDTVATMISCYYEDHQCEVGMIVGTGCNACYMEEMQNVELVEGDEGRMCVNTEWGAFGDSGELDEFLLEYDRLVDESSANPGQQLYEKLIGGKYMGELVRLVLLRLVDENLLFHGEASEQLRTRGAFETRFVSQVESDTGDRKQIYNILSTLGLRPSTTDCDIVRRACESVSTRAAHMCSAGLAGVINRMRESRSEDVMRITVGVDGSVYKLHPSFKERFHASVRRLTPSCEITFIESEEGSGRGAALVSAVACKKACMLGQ
The experiment in a line: Activation of glucokinase (unknown origin) at 10 uM relative to control.

The target in assay [2] is T2, Peroxisome proliferator-activated receptor gamma (Homo sapiens) (UniProt P37231).
T2 sequence (whole entry): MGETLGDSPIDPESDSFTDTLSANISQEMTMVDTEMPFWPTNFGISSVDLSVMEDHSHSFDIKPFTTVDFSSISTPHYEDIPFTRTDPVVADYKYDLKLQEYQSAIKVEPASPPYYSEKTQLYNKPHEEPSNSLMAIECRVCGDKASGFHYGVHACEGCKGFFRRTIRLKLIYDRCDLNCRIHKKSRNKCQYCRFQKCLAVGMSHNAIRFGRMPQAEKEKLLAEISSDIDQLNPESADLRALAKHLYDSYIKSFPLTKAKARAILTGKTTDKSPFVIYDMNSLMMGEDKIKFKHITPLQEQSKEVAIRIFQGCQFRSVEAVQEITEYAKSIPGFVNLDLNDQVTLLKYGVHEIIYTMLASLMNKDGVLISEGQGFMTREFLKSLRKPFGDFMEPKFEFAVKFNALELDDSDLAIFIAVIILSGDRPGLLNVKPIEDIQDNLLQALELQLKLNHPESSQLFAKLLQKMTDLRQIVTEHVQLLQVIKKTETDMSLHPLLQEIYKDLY
Kind of assay: Agonist activity at PPARgamma (unknown origin) at 10 uM by luciferase reporter gene assay relative to control. A general note: In a reporter assay the amount or activity of a reporter protein is the signal.

In assay [3] the target is T1, Hexokinase-4 (Homo sapiens). The experiment in a line: Activation of recombinant human glucokinase assessed as conversion of D-glucose to D-glucose-6-phosphate dehydrate at 10 uM by G6PDH/NADP coupled assay relative to control.
The target of assay [4] is T2, Peroxisome proliferator-activated receptor gamma (Homo sapiens). The experiment in a line: Transactivation of PPARgamma (unknown origin) expressed in HEK293 cells at 10 uM after 24 to 48 hrs by luciferase reporter gene assay relative to control. It is filed as cell-based.

As to `CC(C)OC(=O)c1ccc(NC(=O)Cc2ccc(/C=C3\SC(=O)NC3=O)cc2[N+](=O)[O-])nc1`, in assay [1], the fold change (FC) was 2.9. The Efficacy in assay [2] came to 48%.
Taken in the same sequence, the figures for `CCOC(=O)c1ccc(NC(=O)Cc2ccc(/C=C3\SC(=O)NC3=O)cc2[N+](=O)[O-])nc1` were 2.7 and 47.4%.
As for `CCCOc1ccc(OCc2cccc(F)c2)cc1C(=O)Nc1ccc(C(=O)O)cn1`, the fold change (FC) in assay [3] turned out to be 1.7. For the same compound, the Efficacy in assay [4] is 52.7%.
Consider `O=C(Cc1ccc(/C=C2\SC(=O)NC2=O)cc1[N+](=O)[O-])Nc1ccccn1`, for which, in assay [1], the fold change (FC) amounted to 2.9. In addition, in assay [2], the Efficacy turned out to be 47.1%.
